Patent publication US12186311B2, “Antiproliferative compounds and second active agents for combined use” (Celgene Corporation, priority 2019, dated 2025)

How the values were obtained:
[1] = test system: acute myeloid leukemia (AML); conditions: administered alone; cited from earlier work
[2] = test system: H929 cell line; assay: Thymidine incorporation, combination with Compound 2, combination index (Calcusyn), H929; type: cell-based; conditions: H929, 3 days
Method: H929 cell line was treated with various doses of Compound 2 in combination with increasing doses of an EZH2 inhibitor UNC1999 for 3 days. Cell proliferation was analyzed using thymidine incorporation assays. Combination index values were calculated by Calcusyn and values below 10^0 represented the synergy between the combination treatments. The results are shown in FIG. 5A (H929) and FIG. 5B (H929 combination index).

[3] = biological target: T1, dopamine D2S receptor in transfected HEK-293 cells (Homo sapiens, UniProt P14416); assay: Dopamine D2S receptor binding at 10 μM; conditions: read-out: Dopamine D2S % Inh. (@10 uM)
T1 construct: host or cells: HEK-293
Method: (§1) α1 Adrenergic and Dopamine D2 Receptors. Methods: Binding and functional assays for al adrenergic and dopamine D2 receptors were performed by Eurofins Cerep according to their methods.
Dopamine D2 Receptor. Binding at 10 μM. The binding assay evaluated the affinity of test articles for the dopamine D2 receptor in transfected human embryonic kidney (HEK)-293 cells. For determining the binding in the D2s receptor assay, test article was incubated with 0.3 nM [^3H] methylspiperone or 1 nM [^3H] 7-hydroxy-2-N,N-dipropylaminotetralin (7-OH-DPAT). [^3H] Methylspiperone at 0.3 nM also was used as control ligand in the D2L binding assay. Cell membrane homogenates were incubated in duplicate at room temperature for 60 minutes with ligand in the absence or presence of test articles at 10 μM. After the incubation period, samples were filtered through glass fiber filters, the filters dried and then counted for radioactivity using a scintillation counter. Results are expressed as mean percent inhibition of control radioligand binding.

[4] = test system: non-selective α1 adrenergic receptor in rat cerebral cortex; assay: α1 adrenergic receptor binding at 10 μM ([3H]prazosin); conditions: inhibition of control [3H]prazosin binding
Method: as §1
α1 Adrenergic Receptor. Binding at 10 μM. The binding assay evaluated the affinity of test article for the non-selective al adrenergic receptor in rat cerebral cortex. Membrane homogenates of cerebral cortex were incubated in duplicate for 60 minutes at room temperature with 0.25 nM [^3H]prazosin in the absence or presence of test articles at 10 μM. After the incubation period, samples were filtered through glass fiber filters, the filters dried and then counted for radioactivity using a scintillation counter. Results are expressed as mean percent inhibition of control radioligand binding.

[5] = test system: OPM-2.P10 cells; assay: 7 day combination assay (Annexin V/7-AAD flow cytometry, fractional product method), OPM.2-P10; type: cell-based; conditions: OPM-2.P10, 7 day assay
Method: (§2) Additional second agents, including DNA methyltransferase inhibitors, EZH2 inhibitors, DOT1L inhibitors, and BET inhibitors were selected for combination studies with Compound 2 in relapsed refractory multiple myeloma. Five MM cell lines with acquired or inherent resistance to lenalidomide or pomalidomide were included in the studies (OPM.2-P10, H929-1051, KMS12BM PR, L363, and JJN3). The effect of Compound 2 in combination with these second agents on MM cells were assessed in a 7 day in vitro assay. The MM cells were seeded at densities according to the growth rate of each cell line with the aim of achieving 50-100K cells by Day 7. The assay was performed in a 96-well plate. All MM cell lines were cultured in an incubator at 37° C. with 5% CO2 using the indicated cell culture media containing 1×Penicillin-Streptomycin. The MM cells were primed for 3 days with these second agents at the single agent IC50 value. […] Compound 2 was added to the cells at a dose range of 30 μM-0.00018 μM, depending on the cell line, for a 8 point dose response curve. The cells were incubated at 37° C. for an additional 4 days. At the end of the 7 day treatment, the MM cells were stained with Annexin V and 7-AAD and analyzed on a flow cytometer. Live MM cells were identified as Annexin V and 7-AAD double negative cells. […]

[6] = test system: H929-1051 cells; assay: 7 day combination assay (Annexin V/7-AAD flow cytometry, fractional product method), H929-1051; type: cell-based; conditions: H929-1051, 7 day assay
Method: as §2

[7] = test system: K12PE (parental) cell line; assay: Cell proliferation, combination with Compound 2, combination index (Calcusyn), K12PE; type: cell-based; conditions: 3 days
Method: (§3) K12PE (parental) and K12PE-PR (pomalidomide resistant) cell lines were treated with various doses of Compound 2 in combination with increasing doses of a BRD4 inhibitor JQ1 for 3 days. Cell proliferation was analyzed using thymidine incorporation assays. Combination index values were calculated by Calcusyn and values below 10^0 represented the synergy between the combination treatments. The results are shown in FIG. 3A (K12PE), FIG. 3B (K12PE combination index), FIG. 3C (K12PE-PR), and FIG. 3D (K12PE-PR combination index), respectively.
(§4) AMO1, AMO1-PR (pomalidomide resistant), K12PE and K12PE-PR (pomalidomide resistant) cell lines were treated with increasing doses of Compound 2 in combination with an AURKB inhibitor (AZD 1152). Changes in cell proliferation were studied in response to monotherapy and combinations at Day 3 post treatment. Combination index values were calculated by Calcusyn and values below […] represented the synergy between the combination treatments. AUKKB is one of the key target gene of MDMS8 (molecularly defined myeloma segment 8), a high risk cluster identified from myeloma genome project. The results are shown in FIG. 8A (AMO1 combination index), FIG. 8B (K12PE combination index), FIG. 8C (AMO1-PR combination index), and FIG. 8D (K12PE-PR combination index), respectively. […]

[8] = test system: K12PE-PR (pomalidomide resistant) cell line; assay: Cell proliferation, combination with Compound 2, combination index (Calcusyn), K12PE-PR; type: cell-based; conditions: 3 days
Method: as §3, §4

[9] = test system: AMO1 (parental) cell line; assay: Cell proliferation, combination with Compound 2, combination index (Calcusyn), AMO1; type: cell-based; conditions: AMO1, 3 days
Method: (§5) AMO1 (parental) and AMO1-PR (pomalidomide resistant) cell lines were treated with various doses of Compound 2 in combination with increasing doses of an MEK inhibitor trametinib for 3 days. Cell proliferation was analyzed using thymidine incorporation assays. Combination index values were calculated by Calcusyn and values below 10^0 represented the synergy between the combination treatments. The results are shown in FIG. 4A (AMO1), FIG. 4B (AMO1 combination index), FIG. 4C (AMO1-PR), and FIG. 4D (AMO1-PR combination index), respectively.
(§6) AMO1 and AMO1-PR (pomalidomide resistant) cell lines were treated with increasing doses of Compound 2 in combination with a PLK1 inhibitor (BI2536). Changes in cell proliferation were studied in response to monotherapy and combinations at Day 3 post treatment. Combination Index was calculated using Calcusyn based method. Combination index values were calculated by Calcusyn and values below 10^0 represented the synergy between the combination treatments. PLK1 is one of the key target gene of MDMS8 (molecularly defined myeloma segment 8), a high risk cluster identified from myeloma genome project. The results are shown in FIG. 6A (AMO1), FIG. 6B (AMO1 combination index), FIG. 6C (AMO1-PR), and FIG. 6D (AMO1-PR combination index), respectively. Inhibition of MDMS8 target gene PLK1 with Compound 2 is synergistic in AMO1 and AMO1-PR cells.
(§7) AMO1 and AMO1-PR (pomalidomide resistant) cell lines were treated with increasing doses of Compound 2 in combination with an NEK2 inhibitor (JH295). Changes in cell proliferation were studied in response to monotherapy and combinations at Day 3 post treatment. Combination index values were calculated by Calcusyn and values below 10^0 represented the synergy between the combination treatments. NEK2 is one of the key target gene of MDMS8 (molecularly defined myeloma segment 8), a high risk cluster identified from myeloma genome project. The results are shown in FIG. 7A (AMO1 combination index) and FIG. 7B (AMO1-PR combination index), respectively. Inhibition of MDMS8 target gene NEK2 with Compound 2 is synergistic in AMO1 and AMO1-PR cells.
(§8) AMO1, AMO1-PR (pomalidomide resistant), K12PE and K12PE-PR (pomalidomide resistant) cell lines were treated with increasing doses of Compound 2 in combination with an AURKB inhibitor (AZD 1152). […] Combination index values were calculated by Calcusyn and values below […] represented the synergy between the combination treatments. […]
(§9) AMO1, AMO1-PR (pomalidomide resistant) cell lines were treated with increasing doses of Compound 2 in combination with a BIRC5 inhibitor (YM155). […] Combination index values were calculated by Calcusyn and values below 10^0 represented the synergy between the combination treatments. […]

[10] = test system: AMO1-PR (pomalidomide resistant) cell line; assay: Cell proliferation, combination with Compound 2, combination index (Calcusyn), AMO1-PR; type: cell-based; conditions: 3 days
Method: as §5, §6, §7, §8, §9

T1 sequence (P14416 1-414 isoform P14416-2): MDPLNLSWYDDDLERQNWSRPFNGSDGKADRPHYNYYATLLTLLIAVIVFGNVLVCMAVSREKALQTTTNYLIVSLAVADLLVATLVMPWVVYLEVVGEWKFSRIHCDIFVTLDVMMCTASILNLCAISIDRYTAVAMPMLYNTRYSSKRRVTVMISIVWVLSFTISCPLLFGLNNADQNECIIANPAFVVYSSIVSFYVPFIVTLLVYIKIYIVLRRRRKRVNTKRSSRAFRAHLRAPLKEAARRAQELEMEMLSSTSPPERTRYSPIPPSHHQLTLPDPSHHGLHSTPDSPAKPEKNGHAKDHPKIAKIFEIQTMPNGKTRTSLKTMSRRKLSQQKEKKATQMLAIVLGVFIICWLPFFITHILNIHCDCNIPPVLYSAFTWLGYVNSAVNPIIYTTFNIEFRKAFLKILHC

## CT-011: anti-PD-1 antibody, a humanized antibody
[1]
  response in treating acute myeloid leukemia (AML) at relapse: failed to show response

## CCCc1cc(C)[nH]c(=O)c1CNC(=O)c1cc(-c2ccc(N3CCN(C(C)C)CC3)nc2)cc2c1cnn2C(C)C [UNC1999, 1-Isopropyl-6-(6-(4-isopropylpiperazin-1-yl)pyridin-3-yl)-N-((6-methyl-2-oxo-4-propyl-1,2-dihydropyridin-3-yl)methyl)-1H-indazole-4-carboxamide]
[2]
  synergy with Compound 2 (combination index): synergistic activity with Compound 2

## O=C1CCC(N2Cc3c(OCc4ccc(CN5CCN(c6ccc(F)cc6F)CC5)cc4)cccc3C2=O)C(=O)N1 (racemic) [Compound A, 3-(4-((4-((4-(2,4-difluorophenyl)piperazin-1-yl)methyl)benzyl)oxy)-1-oxoisoindolin-2-yl)piperidine-2,6-dione]
[3]
  inhibition at 10 µM: 99%
[4]
  Adrenergic α1 % Inh. (@10 uM): 102%

## Cn1cc(-c2cc(S(C)(=O)=O)ccc2OCC2CC2)c2ccccc2c1=O [Compound C, 4-[2-(cyclopropylmethoxy)-5-(methanesulfonyl)phenyl]-2-methylisoquinolin-1(2H)-one]
[5]
  synergy in combination with Compound 2: significant synergy
[6]
  synergy in combination with Compound 2: significant synergy

## CCN(CCCOc1ccc2c(Nc3cc(CC(=O)Nc4cccc(F)c4)[nH]n3)ncnc2c1)CCOP(=O)(O)O [AZD 1152]
[7]
  synergy with Compound 2 (combination index): synergistic
[8]
  synergy with Compound 2 (combination index): synergistic
[9]
  synergy with Compound 2 (combination index): synergistic
[10]
  synergy with Compound 2 (combination index): synergistic

## Cc1sc2c(c1C)C(c1ccc(Cl)cc1)=N[C@@H](CC(=O)OC(C)(C)C)c1nnc(C)n1-2 [JQ1, (S)-tert-butyl 2-(4-(4-chlorophenyl)-2,3,9-trimethyl-6H-thieno[3,2-f][1,2,4]triazolo[4,3-a][1,4]diazepin-6-yl)acetate]
[7]
  synergy with Compound 2 (combination index): synergistic activity with Compound 2
[8]
  synergy with Compound 2 (combination index): synergistic activity with Compound 2

## N#Cc1ccc(N2CCN(Cc3ccc(COc4cccc5c4CN(C4CCC(=O)NC4=O)C5=O)cc3)CC2)c(F)c1 (racemic) [Compound 1, 4-(4-(4-(((2-(2,6-dioxopiperidin-3-yl)-1-oxoisoindolin-4-yl)oxy)methyl)benzyl)piperazin-1-yl)-3-fluorobenzonitrile]
[3]
  inhibition at 10 µM: 55%
[4]
  Adrenergic α1 % Inh. (@10 uM): 67%

## N#Cc1ccc(N2CCN(Cc3ccc(COc4cccc5c4CN([C@H]4CCC(=O)NC4=O)C5=O)cc3)CC2)c(F)c1 [Compound 2, (S)-4-(4-(4-(((2-(2,6-dioxopiperidin-3-yl)-1-oxoisoindolin-4-yl)oxy)methyl)benzyl)piperazin-1-yl)-3-fluorobenzonitrile]
[3]
  inhibition at 10 µM: 52%
[4]
  Adrenergic α1 % Inh. (@10 uM): 62%
